In patent publication US9505761B2, “Bicyclic compounds and their use as antibacterial agents and beta-lactamase inhibitors” (FEDORA PHARMACEUTICALS INC., priority 2011, dated 2016):

What was measured:
Experiment in all cases: β-lactamase inhibitory activity, spectrophotometric, nitrocefin
Format in all cases: biochemical
TEM-1 = TEM-1 (Escherichia coli, UniProt P62593); details: nitrocefin substrate, 490 nM as printed
Description: (§1) The inhibitory activities of present compounds against various enzymes were measured by spectrophotometric assay using […] and using nitrocefin as a substrate (J. Antimicrob. Chemother., 28, pp 775-776 (1991)). The concentration of inhibitor (IC50) which inhibits by 50% the reaction of hydrolysis of nitrocefin by the enzyme is determined.

CTX-M-9 = CTX-M-9 (Escherichia coli, UniProt Q9L5C8)
Description: as §1

CMY-2 = CMY-2 (Klebsiella pneumoniae, UniProt Q48434)
Description: as §1

KPC-2 = KPC-2 (Klebsiella pneumoniae, UniProt Q9F663)
Description: as §1

Work on `O=C(NO[C@H]1CCNC1)[C@@H]1CC[C@@H]2CN1C(=O)N2OS(=O)(=O)O` [Ex. 2, (2S,5R)-7-oxo-N-[(3S)-pyrrolidin-3-yloxy]-6-(sulfooxy)-1,6-diazabicyclo[3.2.1]octane-2-carboxamide] yielded an IC50 (TEM-1) of 136 ± 12 nM, an IC50 (CTX-M-9) of 127 ± 9 nM and an IC50 (CMY-2) of 32 ± 3 nM. It also gave an IC50 (KPC-2) of 73 ± 7 nM.
